Results reported in PubChem BioAssay (NCI).
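Each compound was tested at five concentrations against cells in 96-well plates for 48 hours. TGI marks complete inhibition of growth.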

Experiments:
Experiment in all cases: growth of human tumour cells (NCI), 48 h
[1] = system: HL-60(TB) leukemia
[2] = system: OVCAR-4 ovarian
[3] = system: COLO 205 colon
[4] = system: A549 NSCLC
[5] = system: HOP-62 NSCLC
[6] = system: CCRF-CEM leukemia
[7] = system: RPMI-8226 leukemia
[8] = system: MALME-3M melanoma
[9] = system: SK-MEL-28 melanoma
[10] = system: HCT-116 colon
[11] = system: K-562 leukemia
[12] = system: A498 renal
[13] = system: SF-539 CNS
[14] = system: SNB-75 CNS
[15] = system: SF-268 CNS
[16] = system: HCC-2998 colon
[17] = system: OVCAR-5 ovarian
[18] = system: NCI-H23 lung
[19] = system: SNB-19 CNS
[20] = system: SK-OV-3 ovarian
[21] = system: U251 CNS
[22] = system: SN12C renal
[23] = system: PC-3 prostate
[24] = system: EKVX NSCLC
[25] = system: KM12 colon
[26] = system: SW-620 colon
[27] = system: HCT-15 colon
[28] = system: MCF7 breast
[29] = system: TK-10 renal
[30] = system: RXF 393 renal
[31] = system: NCI/ADR-RES ovarian
[32] = system: HT29 colon
[33] = system: HS 578T breast
[34] = system: T-47D breast
[35] = system: MDA-MB-231 breast
[36] = system: IGROV1 ovarian
[37] = system: MDA-MB-435
[38] = system: CAKI-1 renal
[39] = system: SK-MEL-5 melanoma
[40] = system: UO-31 renal
[41] = system: MDA-N
[42] = system: OVCAR-3 ovarian
[43] = system: UACC-62 melanoma
[44] = system: MOLT-4 leukemia
[45] = system: ACHN renal
[46] = system: LOX IMVI melanoma
[47] = system: HOP-92 NSCLC
[48] = system: 786-0 renal
[49] = system: OVCAR-8 ovarian
[50] = system: DU-145 prostate
[51] = system: SR leukemia
[52] = system: SF-295 CNS
[53] = system: NCI-H226 lung
[54] = system: NCI-H460 lung
[55] = system: UACC-257 melanoma
[56] = system: M14 melanoma
[57] = system: NCI-H522 lung
[58] = system: SK-MEL-2 melanoma

Work on `CCOC(=O)NC(Nc1ncn(C(NC(=O)OCC)(C(F)(F)F)C(F)(F)F)n1)(C(F)(F)F)C(F)(F)F` yielded a TGI [1] greater than 100 µM, a TGI [2] greater than 100 µM and a TGI [3] greater than 100 µM. It also gave a TGI [4] greater than 100 µM, a TGI [5] greater than 100 µM and a TGI [6] greater than 100 µM. The TGI [7] was greater than 100 µM, the TGI [8] was greater than 100 µM and the TGI [9] was greater than 100 µM. For the same compound, the TGI [10] was greater than 100 µM, the TGI [11] was greater than 100 µM and the TGI [12] was greater than 100 µM. It also gave a TGI [13] greater than 100 µM, a TGI [14] greater than 100 µM and a TGI [15] greater than 100 µM. The TGI [16] was greater than 100 µM, the TGI [17] was greater than 100 µM and the TGI [18] was greater than 100 µM. It also gave a TGI [19] greater than 100 µM, a TGI [20] greater than 100 µM and a TGI [21] greater than 100 µM. It also gave a TGI [22] greater than 100 µM, a TGI [23] greater than 100 µM and a TGI [24] greater than 100 µM. The TGI [25] was greater than 100 µM, the TGI [26] was greater than 100 µM and the TGI [27] was greater than 100 µM. The TGI [28] was greater than 100 µM, the TGI [29] was greater than 100 µM and the TGI [30] was greater than 100 µM. It also gave a TGI [31] greater than 100 µM, a TGI [32] greater than 100 µM and a TGI [33] greater than 100 µM. It also gave a TGI [34] greater than 100 µM, a TGI [35] greater than 100 µM and a TGI [36] greater than 100 µM. It also gave a TGI [37] greater than 100 µM, a TGI [38] greater than 100 µM and a TGI [39] greater than 100 µM. For the same compound, the TGI [40] was 30.3 µM, the TGI [41] was greater than 100 µM and the TGI [42] was greater than 100 µM. The TGI [43] was greater than 100 µM, the TGI [44] was greater than 100 µM and the TGI [45] was greater than 100 µM. The TGI [46] was greater than 100 µM, the TGI [47] was greater than 100 µM and the TGI [48] was greater than 100 µM. For the same compound, the TGI [49] was greater than 100 µM, the TGI [50] was greater than 100 µM and the TGI [51] was greater than 100 µM. For the same compound, the TGI [52] was greater than 100 µM, the TGI [53] was greater than 100 µM and the TGI [54] was greater than 100 µM. The TGI [55] was greater than 100 µM and the TGI [56] was greater than 100 µM.

In the case of `CC(=O)c1sc2c(c1OC(=O)c1ccc(Cl)cc1Cl)c(=O)n(-c1ccccc1)c(=S)n2-c1ccccc1`, the TGI [1] was 18.9 µM, the TGI [2] was 54 µM and the TGI [3] was 15 µM. It also gave a TGI [4] greater than 90 µM, a TGI [5] of 16.7 µM and a TGI [6] of 4.99 µM. For the same compound, the TGI [7] was 0.64 µM, the TGI [8] was 0.841 µM and the TGI [9] was greater than 48.1 µM. It also gave a TGI [10] of 37.5 µM, a TGI [11] of 46.1 µM and a TGI [12] of 1.4 µM. The TGI [13] was 0.908 µM, the TGI [14] was 4.19 µM and the TGI [15] was 13.7 µM. It also gave a TGI [16] of 22.2 µM, a TGI [17] of 8.96 µM and a TGI [18] of 35.3 µM. It also gave a TGI [19] of 14.2 µM, a TGI [57] of 15.1 µM and a TGI [20] of 7.77 µM. It also gave a TGI [21] of 25.6 µM, a TGI [22] of 4.35 µM and a TGI [23] of 13.7 µM. The TGI [24] was 49.7 µM, the TGI [25] was 27 µM and the TGI [26] was 48.2 µM. The TGI [27] was 11.2 µM, the TGI [28] was 47.1 µM and the TGI [29] was 58.2 µM. The TGI [31] was 20.2 µM, the TGI [32] was 3.01 µM and the TGI [33] was 1.4 µM. It also gave a TGI [34] of 82.3 µM, a TGI [35] of 11.7 µM and a TGI [36] of 36.1 µM. The TGI [37] was 31.9 µM, the TGI [38] was 25.7 µM and the TGI [39] was 7.17 µM. For the same compound, the TGI [40] was 4.48 µM, the TGI [41] was 20 µM and the TGI [42] was 39 µM. The TGI [43] was 29.2 µM, the TGI [44] was 2.35 µM and the TGI [45] was 5.21 µM. It also gave a TGI [46] of 1.19 µM, a TGI [47] of 16.5 µM and a TGI [48] of 29.6 µM. It also gave a TGI [58] of 1.41 µM, a TGI [49] of 5.73 µM and a TGI [50] greater than 100 µM. The TGI [51] was greater than 100 µM, the TGI [52] was 6.51 µM and the TGI [53] was 2.53 µM. It also gave a TGI [54] of 14.3 µM, a TGI [55] of 30 µM and a TGI [56] of 2.35 µM.
